Data from patent publication US20040157837A1, “Combinations for the treatment of fungal infections” (priority 2002, published 2004).

Tests used:
[1] = test system: Candida albicans Strain 17; assay: Anti-proliferation assay, Candida albicans Strain 17; assay type: cell-based; conditions: STRAIN17, Amphotericin B 0.00 μM (r16), read-out: Percent inhibition of proliferation
Source text: (§1) Using the method described below, we tested the ability of the combination of various concentrations of amphotericin B plus disulfiram to inhibit the proliferation of numerous yeast strains using particle density as an indicator of cell number.
(§2) Two clinical Candida albicans isolates (one triazole-resistant strain and one triazole-susceptible strain) were obtained from the culture collection if the Seattle Biomedical Research Institute (Seattle, Wash.). Additional fungal strains were obtained from the American Type Culture Collection triazole-resistant C. albicans: ATCC MYA-573, C. glabrata: ATCC 90030. Yeast cultures were stored in 15% glycerol at −70° C. Isolates were cultured in growth medium (RPMI 1640; 2% glucose without NaHCO3 and phenol red, buffered with 0.165 M MOPS to pH 7.0) at 35° C. for 24 hours prior to in vitro susceptibility testing. All media reagents were purchased from Sigma Chemical Co. (St. Louis, Mo.).
(§3) The following compounds were used: disulfiram and amphotericin B (both from Sigma Chemical Co.). In the anti-proliferation experiments, Gentian Violet was used as a positive control for antifungal activity. Stock solutions of each compound were prepared in DMSO and stored at −20° C. Prior to use, stock solutions were diluted in RPMI to produce 10× solutions. 10× disulfiram (0-7 μL) and 10× amphotericin B (0-7 μL) were then plated in 40 μL of in 384 well microtiter plates to form a matrix of compound combinations.
(§4) All antifungal susceptibility testing was performed according to document M-27A as published by the National Committee for Clinical Laboratory Standards (Reference Method for Broth Dilution Antifungal Susceptibility Testing of Yeasts (1997), Wayne, Pa.). Briefly, yeast inocula from overnight cultures were standardized to a turbidity equivalent to a 0.5 McFarland Standard using a spectrophotometer at 530 nm, giving rise to a stock solution of 1×10^6 cells/mL. Each yeast suspension was further diluted in growth medium to yield a final inoculum concentration of approximately 4×10^3 cells/mL. Forty microlitres of the inoculum were used to inoculate each well, resulting in a final concentration of 2×10^3 cells/mL. Drug-free controls were included on each plate. Plates were incubated for 16 hours at 32° C. The amount of cell growth was determined by particle density as read on a Nephelometer (BMG Lab Technologies; Durham, N.C.).

[2] = test system: Candida albicans MYA 573; assay: Anti-proliferation assay, Candida albicans MYA 573; assay type: cell-based; conditions: MYA573, Amphotericin B 0.00 μM (r16), read-out: Percent inhibition of proliferation
Source text: as §1, §2, §3, §4

[3] = test system: Candida albicans Strain 1; assay: Anti-proliferation assay, Candida albicans Strain 1; assay type: cell-based; conditions: STRAIN1, Amphotericin B 0.00 μM (r16), read-out: Percent inhibition of proliferation
Source text: as §1, §2, §3, §4

[4] = test system: Candida glabrata; assay: Anti-proliferation assay, Candida glabrata; assay type: cell-based; conditions: Nakaseomyces glabratus, Amphotericin B 0.00 μM (r15), read-out: Percent inhibition of proliferation
Source text: as §1, §2, §3, §4

[5] = test system: Aspergillus fumigatus; assay: Anti-proliferation assay, Aspergillus fumigatus; assay type: cell-based; conditions: Amphotericin B 0.00 μM, read-out: Percent inhibition of proliferation
Description: as §1
The Aspergillus fumigatus strain was obtained from the American Type Culture Collection (ATCC 46645). Aspergillus cultures were stored in 15% glycerol at −70° C. Isolates were cultured on Sabouraud glucose (SAB) agar plates at 37° C. for 5 to 7 days. Condidia were collected by addung 5 to 10 mL of sterile saline containing 0.05% Tween 20 to the plates and loosening condidia with a swab. Using a pipette, condidia were collected suspension and placed in a sterile bottle. This was repeated for all plates. After harvesting the suspension was filtered through gauze into a clean, sterile bottle. The turbidity of the supernatants was measured spectrophometrically at 530 nm and the transmission adjusted to 80-82% with PBS (with 0.05% Tween 20) to yield an initial suspension of 1×10^6 CFU/mL.
as §3, §4

[6] = cited from earlier work

CCN(CC)C(=S)SSC(=S)N(CC)CC [Disulfiram, bis(diethylthiocarbamoyl) disulfide]
inhibition at 0.01 µM ([1]; Disulfiram 0.01 μM): -3.64%
inhibition at 0.02 µM ([1]; Disulfiram 0.02 μM): -0.03%
inhibition at 0.04 µM ([1]; Disulfiram 0.04 μM): -0.15%
inhibition at 0.07 µM ([1]; Disulfiram 0.07 μM): 2.27%
inhibition at 0.14 µM ([1]; Disulfiram 0.14 μM): 2.66%
inhibition at 0.28 µM ([1]; Disulfiram 0.28 μM): 22.9%
inhibition at 0.56 µM ([1]; Disulfiram 0.56 μM): 30.5%
inhibition at 1.12 µM ([1]; Disulfiram 1.12 μM): 53.4%
inhibition at 0.01 µM ([2]; Disulfiram 0.01 μM): -5.62%
inhibition at 0.02 µM ([2]; Disulfiram 0.02 μM): 1.7%
inhibition at 0.04 µM ([2]; Disulfiram 0.04 μM): 10.3%
inhibition at 0.07 µM ([2]; Disulfiram 0.07 μM): 25.2%
inhibition at 0.14 µM ([2]; Disulfiram 0.14 μM): 39.3%
inhibition at 0.28 µM ([2]; Disulfiram 0.28 μM): 55.6%
inhibition at 0.56 µM ([2]; Disulfiram 0.56 μM): 78.3%
inhibition at 1.12 µM ([2]; Disulfiram 1.12 μM): 95%
inhibition at 0.01 µM ([3]; Disulfiram 0.01 μM): 5.3%
inhibition at 0.02 µM ([3]; Disulfiram 0.02 μM): 9.08%
inhibition at 0.04 µM ([3]; Disulfiram 0.04 μM): 10.1%
inhibition at 0.07 µM ([3]; Disulfiram 0.07 μM): 11.7%
inhibition at 0.14 µM ([3]; Disulfiram 0.14 μM): 18.2%
inhibition at 0.28 µM ([3]; Disulfiram 0.28 μM): 26.9%
inhibition at 0.56 µM ([3]; Disulfiram 0.56 μM): 54.5%
inhibition at 1.12 µM ([3]; Disulfiram 1.12 μM): 89.6%
inhibition at 0.01 µM ([4]; Disulfiram 0.01 μM): -10.4%
inhibition at 0.02 µM ([4]; Disulfiram 0.02 μM): -1.67%
inhibition at 0.04 µM ([4]; Disulfiram 0.04 μM): 1.52%
inhibition at 0.07 µM ([4]; Disulfiram 0.07 μM): 1.92%
inhibition at 0.14 µM ([4]; Disulfiram 0.14 μM): 2.12%
inhibition at 0.28 µM ([4]; Disulfiram 0.28 μM): 19.6%
inhibition at 0.56 µM ([4]; Disulfiram 0.56 μM): 61.3%
inhibition at 1.12 µM ([4]; Disulfiram 1.12 μM): 88.7%
inhibition at 0.04 µM ([5]; Disulfiram 0.04 μM): 0.66%
inhibition at 0.08 µM ([5]; Disulfiram 0.08 μM): -2.93%
inhibition at 0.16 µM ([5]; Disulfiram 0.16 μM): -2.21%
inhibition at 0.31 µM ([5]; Disulfiram 0.31 μM): -13.1%
inhibition at 0.63 µM ([5]; Disulfiram 0.63 μM): -0.75%
inhibition at 1.25 µM ([5]; Disulfiram 1.25 μM): 6.07%
inhibition at […] ([5]; Disulfiram 2.50 μM): 14.9%
inhibition at 5 µM ([5]; Disulfiram 5.00 μM): 31.7%
inhibition at 10 µM ([5]; Disulfiram 10.00 μM): 37.2%
soluble in alcohol ([6]; alcohol): about 3.8 mg/100 mL
soluble in water ([6]; water): about 20 mg/100 mL
